In ChEMBL document CHEMBL3046115, “Modification and biological evaluation of novel 4-hydroxy-pyrone derivatives as non-peptidic HIV-1 protease inhibitors” (Med Chem Res, 2011):
Activity calls are given as the source filed them. The calls are words filed in the database; no cut-off is given here.

What was measured:
[1] = target: Protease (Human immunodeficiency virus 1) (UniProt Q9YQ12); assay: Inhibition of Human immunodeficiency virus 1 protease expressed in human 293T cells cotransfected with pGAGPOL and pGAG assessed as Gagp24 protein expression after 48 hr by Western blot analysis; type: cell-based
Chain of Protease (Human immunodeficiency virus 1) (Q9YQ12 as listed by the source): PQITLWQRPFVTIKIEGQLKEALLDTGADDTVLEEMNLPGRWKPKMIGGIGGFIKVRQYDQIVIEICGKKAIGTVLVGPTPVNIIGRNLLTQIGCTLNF

Protease = Protease (Human immunodeficiency virus 1, UniProt Q9YQ12); assay: Inhibition of Human immunodeficiency virus 1 protease using Lys-Ala-Arg-Val-Leu-Phe(NO2)-Glu-Ala-Met as substrate
Chain of Protease (Q9YQ12 whole entry): as the sequence (Q9YQ12 as listed by the source) above

[2] = test system: Simian immunodeficiency virus; assay: Antiviral activity against Simian immunodeficiency virus infected CEM174 cells assessed as inhibition of viral-induced syncytium formation after 5 days by microscopic analysis; type: functional, organism-based; conditions: CEM174, 120 h
[3] = Cytotoxicity against Homo sapiens (human) CEM174 cells; type: cell-based; conditions: read-out: TC50 (the source's name)
[4] = Therapeutic index, ratio of TC50 for human CEM174 cells to EC50 for SIV infected in human CEM174 cells; type: cell-based; conditions: CEM174 cells (uninfected for TC50, SIV-infected for EC50), read-out: TI

CCOc1ccc(OCC)c(SC2=C(O)CC(COc3cccc4ccccc34)(c3ccccc3)OC2=O)c1 (racemic)
inhibition [1]: Active | IC50 (Protease): 3.5 nM

O=C1OC(COc2ccc3ccccc3c2)(c2ccccc2)CC(O)=C1Sc1ccccc1Cl (racemic)
IC50 (Protease): 89 nM

O=C1OC(COc2ccc3ccccc3c2)(c2ccccc2)CC(O)=C1SCc1ccccc1 (racemic)
IC50 (Protease): 73 nM

O=C1OC(COc2ccc3ccccc3c2)(c2ccccc2)CC(O)=C1Sc1ccccc1 (racemic)
IC50 (Protease): 126 nM

Cc1ccccc1SC1=C(O)CC(COc2ccc3ccccc3c2)(c2ccccc2)OC1=O (racemic)
IC50 (Protease): 61 nM

Cc1ccc(C)c(SC2=C(O)CC(COc3cccc4ccccc34)(c3ccccc3)OC2=O)c1 (racemic)
IC50 (Protease): 126 nM

O=C1OC(COc2cccc3ccccc23)(c2ccccc2)CC(O)=C1Sc1ccccc1Cl (racemic)
IC50 (Protease): 59 nM

Cc1ccccc1SC1=C(O)CC(COc2cccc3ccccc23)(c2ccccc2)OC1=O (racemic)
IC50 (Protease): 64 nM

CCOc1ccc(OCC)c(SC2=C(O)CC(COc3ccc4ccccc4c3)(c3ccccc3)OC2=O)c1 (racemic)
inhibition [1]: Active | IC50 (Protease): 9.2 nM

O=C1OC(CSc2ccccc2)(c2ccccc2)CC(O)=C1SCc1ccccc1 (racemic)
IC50 (Protease): 32 nM

O=C1OC(COc2cccc3ccccc23)(c2ccccc2)CC(O)=C1Sc1ccccc1 (racemic)
IC50 (Protease): 159 nM

O=C(O)CCCCC1(CCc2ccccc2)CC(O)=C(SCCc2ccccc2)C(=O)O1 (centres undefined)
IC50 (Protease): 5 nM

O=C1OC(CSc2ccccc2)(c2ccccc2)CC(O)=C1Sc1ccccc1 (racemic)
IC50 (Protease): 258 nM

CCc1ccccc1SC1=C(O)CC(COc2ccc3ccccc3c2)(c2ccccc2)OC1=O (racemic)
IC50 (Protease): 22 nM

CCc1ccccc1SC1=C(O)CC(COc2cccc3ccccc23)(c2ccccc2)OC1=O (racemic)
IC50 (Protease): 100 nM

O=C1OC(CSc2ccccc2)(c2ccccc2)CC(O)=C1Sc1ccccc1Cl (racemic)
IC50 (Protease): 70 nM

O=C1OC(COc2cccc3ccccc23)(c2ccccc2)CC(O)=C1SCc1ccccc1 (racemic)
IC50 (Protease): 128 nM

Cc1ccc(C(C)C)c(SC2=C(O)CC(CCc3ccccc3)(C(C)C)OC2=O)c1 (centres undefined)
IC50 (Protease): 1.1 nM | EC50 [2]: 15000 nM

CCOc1ccc(OCC)c(SC2=C(O)CC(CSc3ccccc3)(c3ccccc3)OC2=O)c1 (racemic)
IC50 (Protease): 24 nM

Cc1ccc(C)c(SC2=C(O)CC(CSc3ccccc3)(c3ccccc3)OC2=O)c1 (racemic)
IC50 (Protease): 196 nM

Cc1ccccc1SC1=C(O)CC(CSc2ccccc2)(c2ccccc2)OC1=O (racemic)
IC50 (Protease): 240 nM

Cc1ccc(C)c(SC2=C(O)CC(COc3ccc4ccccc4c3)(c3ccccc3)OC2=O)c1 (racemic)
IC50 (Protease): 65 nM

CCc1ccccc1SC1=C(O)CC(CSc2ccccc2)(c2ccccc2)OC1=O (racemic)
IC50 (Protease): 238 nM

CC(C)(C)NC(=O)[C@@H]1CN(Cc2cccnc2)CCN1C[C@@H](O)C[C@@H](Cc1ccccc1)C(=O)N[C@H]1c2ccccc2C[C@H]1O
CC50 [3]: > 100000 nM | selectivity ratio [4]: > 1000 | EC50 [2]: < 100 nM
